According to ChEMBL document CHEMBL3734705, “Synthesis and in vitro cytotoxicity of novel C-12 substituted-14-deoxy-andrographolide derivatives as potent anti-cancer agents” (2015):

Columns and labels:
[1] = Cytotoxicity against human UACC257 cells assessed as growth level at 10 uM after 48 hrs by SRB assay; type: functional, UACC-257
[2] = Cytotoxicity against human NCI-ADR-RES cells assessed as growth level at 10 uM after 48 hrs by SRB assay; type: functional
[3] = Cytotoxicity against human HCT15 cells assessed as growth level at 10 uM after 48 hrs by SRB assay; type: functional, HCT-15
MCF7 = assay: Cytotoxicity against human MCF7 cells assessed as growth level at 10 uM after 48 hrs by SRB assay; type: functional
[4] = Cytotoxicity against human DU145 cells assessed as growth level at 10 uM after 48 hrs by SRB assay; type: functional, DU-145
MDA-MB-435 = assay: Cytotoxicity against human MDA-MB-435 cells assessed as growth level at 10 uM after 48 hrs by SRB assay; type: functional
T47D = assay: Cytotoxicity against human T47D cells assessed as growth level at 10 uM after 48 hrs by SRB assay; type: functional
Malme-3M = assay: Cytotoxicity against human MALME-3M cells assessed as growth level at 10 uM after 48 hrs by SRB assay; type: functional
[5] = Cytotoxicity against human OVCAR8 cells assessed as growth level at 10 uM after 48 hrs by SRB assay; type: functional, OVCAR-8
[6] = Cytotoxicity against human SNB75 cells assessed as growth level at 10 uM after 48 hrs by SRB assay; type: functional, SNB-75
[7] = Cytotoxicity against human HOP62 cells assessed as growth level at 10 uM after 48 hrs by SRB assay; type: functional, HOP-62
[8] = Cytotoxicity against human TK10 cells assessed as growth level at 10 uM after 48 hrs by SRB assay; type: functional, TK-10
[9] = Cytotoxicity against human RXF393 cells assessed as growth level at 10 uM after 48 hrs by SRB assay; type: functional, RXF 393
SK-MEL-28 = assay: Cytotoxicity against human SK-MEL-28 cells assessed as growth level at 10 uM after 48 hrs by SRB assay; type: functional
[10] = Cytotoxicity against human COLO205 cells assessed as growth level at 10 uM after 48 hrs by SRB assay; type: functional, COLO 205
SN12C = assay: Cytotoxicity against human SN12C cells assessed as growth level at 10 uM after 48 hrs by SRB assay; type: functional
A549 = assay: Cytotoxicity against human A549 cells assessed as growth level at 10 uM after 48 hrs by SRB assay; type: functional
KM12 = assay: Cytotoxicity against human KM12 cells assessed as growth level at 10 uM after 48 hrs by SRB assay; type: functional
[11] = Cytotoxicity against human Hs578T cells assessed as growth level at 10 uM after 48 hrs by SRB assay; type: functional, Hs-578T
M14 = assay: Cytotoxicity against human M14 cells assessed as growth level at 10 uM after 48 hrs by SRB assay; type: functional
SK-MEL-2 = assay: Cytotoxicity against human SK-MEL-2 cells assessed as growth level at 10 uM after 48 hrs by SRB assay; type: functional
[12] = Cytotoxicity against human IGROV1 cells assessed as growth level at 10 uM after 48 hrs by SRB assay; type: functional, IGROV-1
[13] = Cytotoxicity against human SNB19 cells assessed as growth level at 10 uM after 48 hrs by SRB assay; type: functional, SNB-19
U-251 = assay: Cytotoxicity against human U251 cells assessed as growth level at 10 uM after 48 hrs by SRB assay; type: functional
NCI-H23 = assay: Cytotoxicity against human NCI-H23 cells assessed as growth level at 10 uM after 48 hrs by SRB assay; type: functional
[14] = Cytotoxicity against human OVCAR5 cells assessed as growth level at 10 uM after 48 hrs by SRB assay; type: functional, OVCAR-5
[15] = Cytotoxicity against human SF539 cells assessed as growth level at 10 uM after 48 hrs by SRB assay; type: functional, SF-539
[16] = Cytotoxicity against human Caki1 cells assessed as growth level at 10 uM after 48 hrs by SRB assay; type: functional, CAKI-1
[17] = Cytotoxicity against human PC3 cells assessed as growth level at 10 uM after 48 hrs by SRB assay; type: functional, PC-3
[18] = Cytotoxicity against human HCC2998 cells assessed as growth level at 10 uM after 48 hrs by SRB assay; type: functional, HCC 2998
[19] = Cytotoxicity against human OVCAR3 cells assessed as growth level at 10 uM after 48 hrs by SRB assay; type: functional, OVCAR-3
HT-29 = assay: Cytotoxicity against human HT-29 cells assessed as growth level at 10 uM after 48 hrs by SRB assay; type: functional
NCI-H226 = assay: Cytotoxicity against human NCI-H226 cells assessed as growth level at 10 uM after 48 hrs by SRB assay; type: functional
[20] = Cytotoxicity against human SF268 cells assessed as growth level at 10 uM after 48 hrs by SRB assay; type: functional, SF-268
MDA-MB-468 = assay: Cytotoxicity against human MDA-MB-468 cells assessed as growth level at 10 uM after 48 hrs by SRB assay; type: functional
SR = assay: Cytotoxicity against human SR cells assessed as growth level at 10 uM after 48 hrs by SRB assay; type: functional
[21] = Cytotoxicity against human LOXIMVI cells assessed as growth level at 10 uM after 48 hrs by SRB assay; type: functional, LOX IMVI
[22] = Cytotoxicity against human SF295 cells assessed as growth level at 10 uM after 48 hrs by SRB assay; type: functional, SF-295
NCI-H322M = assay: Cytotoxicity against human NCI-H322M cells assessed as growth level at 10 uM after 48 hrs by SRB assay; type: functional
[23] = Cytotoxicity against human UO31 cells assessed as growth level at 10 uM after 48 hrs by SRB assay; type: functional, UO-31
NCI-H522 = assay: Cytotoxicity against human NCI-H522 cells assessed as growth level at 10 uM after 48 hrs by SRB assay; type: functional
SK-MEL-5 = assay: Cytotoxicity against human SK-MEL-5 cells assessed as growth level at 10 uM after 48 hrs by SRB assay; type: functional
[24] = Cytotoxicity against human HL-60(TB) cells assessed as growth level at 10 uM after 48 hrs by SRB assay; type: functional
[25] = Cytotoxicity against human OVCAR4 cells assessed as growth level at 10 uM after 48 hrs by SRB assay; type: functional, OVCAR-4
CCRF-CEM = assay: Cytotoxicity against human CCRF-CEM cells assessed as growth level at 10 uM after 48 hrs by SRB assay; type: functional
MDA-MB-231 = assay: Cytotoxicity against human MDA-MB-231 cells assessed as growth level at 10 uM after 48 hrs by SRB assay; type: functional
K562 = assay: Cytotoxicity against human K562 cells assessed as growth level at 10 uM after 48 hrs by SRB assay; type: functional
A498 = assay: Cytotoxicity against human A498 cells assessed as growth level at 10 uM after 48 hrs by SRB assay; type: functional
[26] = Cytotoxicity against human SKOV3 cells assessed as growth level at 10 uM after 48 hrs by SRB assay; type: functional, SK-OV-3
[27] = Cytotoxicity against human MOLT4 cells assessed as growth level at 10 uM after 48 hrs by SRB assay; type: functional, MOLT-4
[28] = Cytotoxicity against human BT549 cells assessed as growth level at 10 uM after 48 hrs by SRB assay; type: functional, BT-549
[29] = Cytotoxicity against human RPMI8226 cells assessed as growth level at 10 uM after 48 hrs by SRB assay; type: functional, RPMI-8226
[30] = Cytotoxicity against human HCT116 cells assessed as growth level at 10 uM after 48 hrs by SRB assay; type: functional, HCT-116
[31] = Cytotoxicity against human HOP92 cells assessed as growth level at 10 uM after 48 hrs by SRB assay; type: functional, HOP-92
[32] = Cytotoxicity against human UACC62 cells assessed as growth level at 10 uM after 48 hrs by SRB assay; type: functional, UACC-62
[33] = Cytotoxicity against human SW620 cells assessed as growth level at 10 uM after 48 hrs by SRB assay; type: functional, SW-620
ACHN = assay: Cytotoxicity against human ACHN cells assessed as growth level at 10 uM after 48 hrs by SRB assay; type: functional
EKVX = assay: Cytotoxicity against human EKVX cells assessed as growth level at 10 uM after 48 hrs by SRB assay; type: functional
NCI-H460 = assay: Cytotoxicity against human NCI-H460 cells assessed as growth level at 10 uM after 48 hrs by SRB assay; type: functional
786-0 = assay: Cytotoxicity against human 786-0 cells assessed as growth level at 10 uM after 48 hrs by SRB assay; type: functional

For C=C1CC[C@@H]2[C@](C)(COC(C)=O)[C@H](OC(C)=O)CC[C@@]2(C)[C@@H]1CC(NC1CC1)C1=CCOC1=O (mixture of isomers), the Activity [1] was 100.57%, the Activity [2] was 98.35% and the Activity [3] was 93.63%. It also gave an Activity (MCF7) of 85.36%, an Activity [4] of 98.78% and an Activity (MDA-MB-435) of 96.33%. For the same molecule, the Activity (T47D) was 79.56%, the Activity (Malme-3M) was 89.64% and the Activity [5] was 105.48%. The Activity [6] was 90.39%, the Activity [7] was 102.23% and the Activity [8] was 98.64%. It also gave an Activity [9] of 116.59%, an Activity (SK-MEL-28) of 107.72% and an Activity [10] of 106.86%. It also gave an Activity (SN12C) of 101.14%, an Activity (A549) of 82.92% and an Activity (KM12) of 90.49%. For the same molecule, the Activity [11] was 110.62%, the Activity (M14) was 93.67% and the Activity (SK-MEL-2) was 104.35%. The Activity [12] was 96%, the Activity [13] was 100.97% and the Activity (U-251) was 96.2%. It also gave an Activity (NCI-H23) of 98.94%, an Activity [14] of 110.21% and an Activity [15] of 95.4%. The Activity [16] was 98.25%, the Activity [17] was 77.06% and the Activity [18] was 102.97%. It also gave an Activity [19] of 96.85%, an Activity (HT-29) of 100.7% and an Activity (NCI-H226) of 106.3%. For the same molecule, the Activity [20] was 93.53%, the Activity (MDA-MB-468) was 91.77% and the Activity (SR) was 73.84%. For the same molecule, the Activity [21] was 94%, the Activity [22] was 97.25% and the Activity (NCI-H322M) was 98.57%. For the same molecule, the Activity [23] was 82.44%, the Activity (NCI-H522) was 78.4% and the Activity (SK-MEL-5) was 96.5%. The Activity [24] was 102.95%, the Activity [25] was 101.59% and the Activity (CCRF-CEM) was 95.35%. The Activity (MDA-MB-231) was 100.99%, the Activity (K562) was 74.16% and the Activity (A498) was 102.06%. For the same molecule, the Activity [26] was 102.92%, the Activity [27] was 87.21% and the Activity [28] was 86.41%. For the same molecule, the Activity [29] was 70.32%, the Activity [30] was 88.19% and the Activity [31] was 83.7%. The Activity [32] was 84.5%, the Activity [33] was 115.37% and the Activity (ACHN) was 98.37%. It also gave an Activity (EKVX) of 86.69%, an Activity (NCI-H460) of 105.35% and an Activity (786-0) of 107.45%.
For C=C1CC[C@@H]2[C@](C)(COC(C)=O)[C@H](OC(C)=O)CC[C@@]2(C)[C@@H]1CC(NCCCCCCCCCCCCCCCCCC)C1=CCOC1=O (mixture of isomers), the Activity [1] was 108.48%, the Activity [2] was 101.33% and the Activity [3] was 117.13%. The Activity (MCF7) was 101.73%, the Activity [4] was 108.9% and the Activity (MDA-MB-435) was 107%. It also gave an Activity (T47D) of 97.23%, an Activity (Malme-3M) of 111.94% and an Activity [5] of 104.57%. It also gave an Activity [6] of 87.94%, an Activity [7] of 96.46% and an Activity [8] of 102.72%. The Activity [9] was 109.25%, the Activity (SK-MEL-28) was 111.23% and the Activity [10] was 103.75%. For the same molecule, the Activity (SN12C) was 103.39%, the Activity (A549) was 101.56% and the Activity (KM12) was 107.75%. For the same molecule, the Activity [11] was 103.17%, the Activity (M14) was 102.16% and the Activity [12] was 110.04%. It also gave an Activity [13] of 102.65%, an Activity (U-251) of 101.78% and an Activity (NCI-H23) of 100.06%. The Activity [14] was 108.25%, the Activity [15] was 101.6% and the Activity [16] was 97.66%. For the same molecule, the Activity [17] was 89.57%, the Activity [18] was 114% and the Activity [19] was 103.35%. For the same molecule, the Activity (HT-29) was 103.31%, the Activity (NCI-H226) was 92.06% and the Activity [20] was 100.29%. It also gave an Activity (MDA-MB-468) of 99.82%, an Activity (SR) of 101.94% and an Activity [21] of 98.11%. The Activity [22] was 112.48%, the Activity (NCI-H322M) was 102.69% and the Activity [23] was 88.83%. For the same molecule, the Activity (NCI-H522) was 98.04%, the Activity (SK-MEL-5) was 101.04% and the Activity [24] was 100.5%. The Activity [25] was 114.35%, the Activity (CCRF-CEM) was 104.64% and the Activity (MDA-MB-231) was 96.62%. It also gave an Activity (K562) of 104.45%, an Activity (A498) of 100.06% and an Activity [26] of 102.04%. It also gave an Activity [27] of 95.91%, an Activity [28] of 106.47% and an Activity [29] of 101.07%. For the same molecule, the Activity [30] was 105.04%, the Activity [31] was 80.59% and the Activity [32] was 97.28%. For the same molecule, the Activity [33] was 101.13%, the Activity (ACHN) was 113.27% and the Activity (EKVX) was 111.12%. The Activity (NCI-H460) was 105.91% and the Activity (786-0) was 106.62%.
